Counter-ions that a name gives are not always drawn.
Target: GABA receptor complex (GRC)
Assay: [35S]TBPS binding in rat cerebral cortex P2 homogenate
Details: for IC50: concentration to inhibit 50% of control [35S]TBPS binding, 2 nM [35S]TBPS; for IMAX (maximum inhibition): maximum inhibition of [35S]TBPS binding
Text: To those skilled in the art, it is known that the modulation of [^35S]t-butylbicyclophosphorothionate ([^35S]TBPS) binding is a measure of the potency and efficacy of drugs acting at the GRC, which drugs may be of potential therapeutic value in the treatment of stress, anxiety, and seizure disorders (Squires, R. F., et al., Mol, Pharmacol., 23:326 (1983); Lawrence, L. J., et al., Biochem. Biophys. Res. Comm., 123:1130-1137 (1984); Wood, et al., Pharmacol, Exp. Ther., 231:572-576 (1984)). Several experiments were performed previously to determine the nature of the modulation of [^35S]TBPS as affected by neuroactive steroids. […] Furthermore, these compounds have high potency and efficacy at the GRC, with stringent structural requirements for such activity.
The procedures for performing this assay are fully discussed in: (1) Gee, K. W. et al., European Journal of Pharmacology, 136:419-423 (1987)); and (2) Gee, et al., Molecular Pharmacology 30:218 (1986). These procedures were performed as follows:
Brains from male Sprague-Dawley rats were removed immediately following sacrifice and the cerebral cortices dissected over ice. A P2 homogenate was prepared as previously described (Gee, et al., Molecular Pharmacology 30:218 (1986)). Briefly, the cortices were gently homogenized in 032 M sucrose followed by centrifugation at 1000×g for 10 minutes. The supernatant was collected and centrifuged at 9000×g for 20 minutes. The resultant P2 pellet was suspended as a 10% (original wet weight/volume) suspension in 50 mM Na/K phosphate buffer (pH 7.4) 200 mM NaCl to form the homogenate.
One hundred microliter […] aliquots of the P2 homogenate (0.5 milligrams (mg) protein) were incubated with 2 nanomolar (nM) [^35S]TBPS (70-110 curies/millimole; New England Nuclear, Boston, Mass.) in the presence or absence of the naturally occurring steroids or their synthetic derivatives to be tested. The tested compounds were dissolved in dimethylsulfoxide (Baker Chem. Co., Phillipsburg, N.J.) and added to the incubation mixture in 5 μL aliquots. The incubation mixture was brought to a final volume of 1 mL with buffer. Non-specific binding was defined as binding in the presence of […]. The effect and specificity of GABA (Sigma Chem. Co., St. Louis, Mo.) was evaluated by performing all assays in the presence of GABA plus (+)bicuculline (Sigma Chem. Co.). Incubations maintained at 25° C. for 90 minutes (steady state conditions) were terminated by rapid filtration through glass fiber filters (No. 32, Schleicher and Schuell, Keene, N.H.). Filter-bound radioactivity was quantitated by liquid scintillation spectrophotometry. Kinetic data and compound/[^35S]TBPS dose-response curves were analyzed by nonlinear regression using a computerized iterative procedure to obtain rate constants and IC50 (concentration of compound at which half-maximal inhibition of basal [^35S]TBPS binding occurs) values.
Various compounds were screened to determine their potential as modulators of [^35S]TBPS binding in vitro. These assays were performed in accordance with the above discussed procedures. Based on these assays, we have established the structure-activity requirements for their specific interaction at the GRC and their rank order potency and efficacy. Experimental data obtained in this assay for a number of 3α-hydroxypregnan-20-one derivatives is discussed in Gee, K. W. et al., European Journal of Pharmacology, 136:419-423 (1987) and in U.S. Pat. No. 5,232,917. Table 1 provides IC50 and maximum inhibition (IMAX) measurements for numerous compounds, including examples of compounds disclosed and claimed herein. IC50 is defined as concentration of compounds to inhibit 50% of control [^35S]TBPS binding. It is an indication of a compound's in vitro potency. Maximum inhibition is an indication of a compound's in vitro efficacy.

| Structure (SMILES) | IC50 | IMAX (maximum inhibition) |
| --- | --- | --- |
| CCCO[C@H]1C[C@@]2(C)[C@@H](CC[C@@H]3[C@@H]2CC[C@]2(C)[C@@H](C(=O)CSc4ccncc4)CC[C@@H]32)C[C@@H]1O [3α-hydroxy-2β-propoxy-21-(pyrid-4-ylthio)-5α-pregnan-20-one] | 0.014 µM | 98% |
| C[C@@]12CCC[C@H]1[C@@H]1CC[C@@H]3C[C@H](O)CC[C@]3(C)[C@H]1CC2 [3α-Hydroxy-5β-androstane, reference compound] | 0.815 µM | 83% |
| C[C@]12CC[C@@H](O)C[C@H]1CC[C@@H]1[C@@H]2CC[C@]2(C)[C@@H](C(=O)CCc3ccncc3)CC[C@@H]12 [3α-Hydroxy-21-(4-pyridylmethyl)-5β-pregnan-20-one] | 0.187 µM | 103% |
| C[C@]12C[C@H](O)[C@H]3[C@@H](CCC4=CC(=O)CC[C@@]43C)[C@@H]1CC[C@@H]2C(=O)CO [4-Pregnan-11β,21-diol-3,20-dione, reference compound] | > 1000 µM | 30% |
| CC(C)O[C@H]1C[C@@]2(C)[C@@H](CC[C@H]3[C@@H]4CCC[C@@]4(C)CC[C@@H]32)C[C@@H]1O [3α-Hydroxy-2β-isopropoxy-5α-androstane, 2β-Isopropoxy-3α-hydroxy-5α-androstane] | 0.456 µM | 98% |
| C#C[C@@]1(O)CC[C@@]2(C)[C@H](CC[C@@H]3[C@@H]2CC[C@]2(C)[C@@H](C(=O)CSCCCO)CC[C@@H]32)C1 [3β-ethynyl-3α-hydroxy-21-hydroxypropylthio-5β-pregnan-20-one] | 0.093 µM | 97% |
| COCC1(O)CCC2(C)C(CCC3C2CCC2(C)C(C(=O)CS(=O)(=O)c4ccc(F)cc4)CCC32)C1 (stereo not drawn) [21-(4′-fluorophenyl)sulfonyl-3α-hydroxy-3β-methoxymethyl-5α-pregnan-20-one] | 0.049 µM | 99% |
| COC1CCC2C3CCC4CC(O)(C(F)(F)F)CCC4(C)C3CCC12C (stereo not drawn) [3α-Hydroxy-17β-methoxy-3β-trifluoromethyl-5α-androstane] | 0.341 µM | 100% |
| COCC1(O)CCC2(C)C(CCC3C2CCC2(C)C(C(=O)CSc4ccncc4)CCC32)C1 (stereo not drawn) [3α-hydroxy-3β-methoxymethyl-21-(pyrid-4-ylthio)-5α-pregnan-20-one] | 0.038 µM | 106% |
| C[C@@]1(O)CC[C@@]2(C)[C@@H](CC[C@@H]3[C@@H]2CC[C@]2(C)[C@@H](C(=O)COc4ccc5ncccc5c4)CC[C@@H]32)C1 [3α-hydroxy-3β-methyl-21-(quinolin-6-yloxy)-5α-pregnan-20-one] | 0.076 µM | 96% |
| CO[C@H]1CC[C@H]2[C@@H]3CC[C@H]4C[C@H](O)[C@@H](OC(C)C)C[C@]4(C)[C@H]3CC[C@]12C [3α-Hydroxy-2β-isopropoxy-17β-methoxy-5α-androstane] | 0.026 µM | 100% |
| C#CC1(O)CCC2(C)C(CCC3C2CCC2(C)C(C(=O)C[S+]([O-])CCCO)CCC32)C1 (stereo not drawn) [3β-Ethynyl-3α-hydroxy-21-hydroxpropylsulfinyl-5β-pregnan-20-one] | 0.782 µM | 107% |
| COCC1(O)CCC2(C)C(CCC3C2CCC2(C)C(C(=O)CSc4ccc(F)cc4)CCC32)C1 (stereo not drawn) [21-(4′-fluorophenylthio)-3α-hydroxy-3β-methoxymethyl-5α-pregnan-20-one] | 0.176 µM | 97% |
| CCCOC1CC2(C)C(CCC3C2CCC2(C)C(C(=O)COc4ccc([N+](C)(C)C)cc4)CCC32)CC1O (stereo not drawn) [3α-hydroxy-2β-propoxy-21-(4′-N,N,N-trimethylammoniumphenoxy)-5α-pregnan-20-one iodide salt] | 0.129 µM | 92% |
| C#CCO[C@H]1CC[C@H]2[C@@H]3CC[C@H]4C[C@](C)(O)CC[C@]4(C)[C@H]3CC[C@]12C [3α-Hydroxy-3β-methyl-17β-(2-propynyloxy)-5α-androstane] | 0.163 µM | 94% |
| CCCOC1CC2(C)C(CCC3C2CCC2(C)C(C(=O)CSc4cc[n+](C)cc4)CCC32)CC1O (stereo not drawn) [3α-Hydroxy-2β-propoxy-21-(pyrid-4-ylthio)-5α-pregnan-20-one N-methyl iodide] | 0.126 µM | 101% |
| CC(=O)c1ccc(C#CC2(O)CCC3C(CCC4C3CCC3(C)CCCC43)C2)cc1 (stereo not drawn) [3α-Hydroxy-3β-(4′-acetylphenyl)ethynyl-5β-19-norandrostane] | 0.492 µM | 99% |
| C[n+]1ccc(SCC(=O)C2CCC3C4CCC5CC(O)CCC5(C)C4CCC23C)cc1 (stereo not drawn) [3α-Hydroxy-21-(4′-pyridyl)thio-5β-pregnan-20-one N-methyl io] [3α-hydroxy-21-(pyrid-4-ylthio)-5β-pregnan-20-one N-methyl iodide] | 0.263 µM | 53% |
| C#CC1(O)CCC2(C)C(CCC3C2CCC2(C)C(C(=O)CSCCC(=O)O)CCC32)C1 (stereo not drawn) [3β-ethynyl-3α-hydroxy-21-thiopropanoate-5β-pregnan-20-one sodium salt] | 1.02 µM | 101% |
| C#CC1(O)CCC2(C)C(CCC3C2CCC2(C)C(C(=O)CSCCCOS(=O)(=O)O)CCC32)C1 (stereo not drawn) [3β-Ethynyl-3α-hydroxy-21-thiopropanesulfate-5β-pregnan-20-one sodium salt] | 0.113 µM | 104% |
| CCCO[C@H]1C[C@@]2(C)[C@@H](CC[C@@H]3[C@@H]2CC[C@]2(C)[C@@H](C(=O)CSCCCS(=O)(=O)[O-])CC[C@@H]32)C[C@@H]1O.[Na+] [3α-hydroxy-2β-propoxy-21-thiopropanesulfonate-5α-pregnan-20-one sodium salt] | 0.067 µM | 101% |
| C[n+]1cccc2cc(OCC(=O)C3CCC4C5CCC6CC(C)(O)CCC6(C)C5CCC34C)ccc21 (stereo not drawn) [3α-hydroxy-3β-methyl-21-(quinolin-6-yloxy)-5α-pregnan-20-one N-methyl iodide] | 0.252 µM | 102% |
| C#C[C@@]1(O)CC[C@@]2(C)[C@@H](CC[C@@H]3[C@@H]2CC[C@]2(C)[C@@H](C(=O)CSc4ccncc4)CC[C@@H]32)C1 [3β-ethynyl-3α-hydroxy-21-(pyrid-4-ylthio)-5α-pregnan-20-one] | 0.043 µM | 103% |
| C[C@@]12CCC[C@H]1[C@@H]1CC[C@H]3C[C@H](O)CC[C@]3(C)[C@H]1CC2 [3α-Hydroxy-5α-androstane, reference compound] | 0.494 µM | 99% |
| CC(C)CCC[C@@H](C)[C@H]1CC[C@H]2[C@@H]3CC=C4C[C@@H](O)CC[C@]4(C)[C@H]3CC[C@]12C [Cholesterol, reference compound] |  | 0% |
| CC(=O)[C@H]1CC[C@H]2[C@@H]3CCC4=CC(=O)CC[C@]4(C)[C@H]3CC[C@]12C [Progesterone, reference compound] | 5.2 µM | 100% |

— patent US6780853B1, “Neuroactive steroids of the androstane and pregnane series” (priority 1995, dated 2004)
